In patent US20250213701A1, “MEDICAMENT FOR TREATING HUMAN TUMOR BASED ON ERF3A-TARGETING PROTEOLYSIS MECHANISM” (SUZHOU DEGEN BIO-MEDICAL CO., LTD., priority 2022, published 2025):

Experiments:
Assay type in all cases: cell-based, human
[1] = system: VCaP cells; experiment: Anti-proliferative toxicity against prostate cancer cell line Vcap (CCK8); conditions: 3 days, CCK8
Outline: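 VCaP cells (DMEM, 10% FBS) seeded 20000 cells/well, cultured 72 h, then exposed in triplicate to compound at final well concentrations of 0.00001–0.16 μM for 3 days at 37 °C, 5% CO2. Viability by CCK8, 1–4 h at 37 °C, absorbance at 450 nm.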

[2] = system: 22Rv1 cells; experiment: Anti-proliferative toxicity against prostate cancer cell line 22Rv1 (CCK8); conditions: 3 days, CCK8
Outline: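 22Rv1 cells pre-cultured for 48 h, then exposed to compounds at 0.00001-1.0 μM final, in triplicate, for 3 days. Viability read by CCK8 absorbance at 450 nm after 1-4 h at 37 °C.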

[3] = system: PC-3 cells; experiment: Anti-proliferative toxicity against prostate cancer cell line PC-3 (CCK8); conditions: 3 days
Outline: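 PC-3 cells (4000/well, pre-cultured 24 h) exposed in triplicate to compound at final 0.00001-1.0 μM for 3 days at 37 °C, 5% CO2. Viability read by CCK8, 1-4 h at 37 °C, absorbance at 450 nm.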

| Molecule | IC50 ([1]; Homo sapiens, 72 h) [nM] | IC50 ([2]; Homo sapiens, 72 h) [nM] | IC50 ([3]; Homo sapiens, 72 h) [nM] | IC50 [1] [nM] | IC50 [2] [nM] | IC50 [3] [nM] |
| --- | --- | --- | --- | --- | --- | --- |
| C[C@]12C=CC(=O)N[C@@H]1CC[C@@H]1[C@@H]2CC[C@]2(C)[C@@H](C(=O)Nc3cccc(N[C@@H]4CCC[C@@H](Nc5cccc6c5CN([C@@H]5CCC(=O)NC5=O)C6=O)C4)c3)CC[C@@H]12 [C66, N-(3-(N—(N-(4-(2-(3R-(2,6-dioxopiperidine))-1-oxo-2,3-dihydro-1H-isoindol))-1R,3R-cyclohexanediamine))phenyl)-3-oxo-4-aza-5α-androst-1-ene-17β-carboxamide] | > 1000 | > 1000 | > 1000 |  |  |  |
| CC(C)(C)C(=O)OCN1C(=O)CC[C@H](N2C(=O)c3cccc(N[C@@H]4CCC[C@@H](Nc5cccc(NC(=O)[C@H]6CC[C@H]7[C@@H]8CC[C@H]9NC(=O)C=C[C@]9(C)[C@H]8CC[C@]67C)c5)C4)c3C2=O)C1=O [C67, N-(3-(N—(N-(4-(2-(3S-(1-pivaloyloxymethyl-2,6-dioxopiperidine))-isoindole-1,3-dione))-1R,3R-cyclohexanediamine))phenyl)-3-oxo-4-aza-5α-androst-1-ene-17β-carboxamide] | ≤ 0.1 | 0.1 to 10 | 0.1 to 10 |  |  |  |
| [2H][C@@]1(Nc2cccc(NC(=O)[C@H]3CC[C@H]4[C@@H]5CC[C@H]6NC(=O)C=C[C@]6(C)[C@H]5CC[C@]34C)c2)CCC[C@@]([2H])(Nc2cccc3c2C(=O)N(C2CCC(=O)NC2=O)C3=O)C1 (stereo partly drawn) [C68, N-(3-(N—(N-(4-(2-(3-(2,6-dioxopiperidine))-isoindole-1,3-dione))-1,3-dideutero-1R,3R-cyclohexanediamine))phenyl)-3-oxo-4-aza-5α-androst-1-ene-17β-carboxamide] | ≤ 0.1 | 0.1 to 10 | 0.1 to 10 |  |  |  |
| CC1[C@H](Nc2cccc(NC(=O)[C@H]3CC[C@H]4[C@@H]5CC[C@H]6NC(=O)C=C[C@]6(C)[C@H]5CC[C@]34C)c2)CCC[C@H]1Nc1cccc2c1C(=O)N(C1CCC(=O)NC1=O)C2=O (stereo partly drawn) [C69, N-(3-(N—(N-(4-(2-(3-(2,6-dioxopiperidine))-isoindole-1,3-dione))-2-methyl-1R,3R-cyclohexanediamine))phenyl)-3-oxo-4-aza-5α-androst-1-ene-17β-carboxamide] | 0.1 to 10 | 0.1 to 10 | 10 to 1000 |  |  |  |
| C[C@]12C=CC(=O)N[C@@H]1CC[C@@H]1[C@@H]2CC[C@]2(C)[C@@H](C(=O)Nc3cccc(N[C@H]4C[C@H](Nc5cccc6c5C(=O)N(C5CCC(=O)NC5=O)C6=O)CC(F)(F)C4)c3)CC[C@@H]12 (stereo partly drawn) [C74, N-(3-(N—(N-(4-(2-(3-(2,6-dioxopiperidine))-isoindole-1,3-dione))-5,5-difluoro-1S,3S-cyclohexanediamine))phenyl)-3-oxo-4-aza-5α-androst-1-ene-17β-carboxamide] | 0.1 to 10 | 0.1 to 10 | 10 to 1000 |  |  |  |
| C[C@]12C=CC(=O)N[C@@H]1CC[C@@H]1[C@@H]2CC[C@]2(C)[C@@H](C(=O)Nc3cccc(N[C@@H]4COC[C@@H](Nc5cccc6c5C(=O)N(C5CCC(=O)NC5=O)C6=O)C4)c3)CC[C@@H]12 (stereo partly drawn) [C75, N-(3-(N—(N-(4-(2-(3-(2,6-dioxopiperidine))-isoindole-1,3-dione))-tetrahydropyran-3S,5S-diamine))phenyl)-3-oxo-4-aza-5α-androst-1-ene-17β-carboxamide] | 10 to 1000 | 10 to 1000 | 10 to 1000 |  |  |  |
| C[C@]12C=CC(=O)N[C@@H]1CC[C@@H]1[C@@H]2CC[C@]2(C)[C@@H](C(=O)Nc3cccc(N[C@@H]4CNC[C@@H](Nc5cccc6c5C(=O)N(C5CCC(=O)NC5=O)C6=O)C4)c3)CC[C@@H]12 (stereo partly drawn) [C76, N-(3-(N—(N-(4-(2-(3-(2,6-dioxopiperidine))-isoindole-1,3-dione))-piperidine-3S,5S-diamine))phenyl)-3-oxo-4-aza-5α-androst-1-ene-17β-carboxamide] | 10 to 1000 | 10 to 1000 | 10 to 1000 |  |  |  |
| CN1C[C@@H](Nc2cccc(NC(=O)[C@H]3CC[C@H]4[C@@H]5CC[C@H]6NC(=O)C=C[C@]6(C)[C@H]5CC[C@]34C)c2)C[C@H](Nc2cccc3c2C(=O)N(C2CCC(=O)NC2=O)C3=O)C1 (stereo partly drawn) [C77, N-(3-(N—(N-(4-(2-(3-(2,6-dioxopiperidine))-isoindole-1,3-dione))-1-methylpiperidine-3S,5S-diamine))phenyl)-3-oxo-4-aza-5α-androst-1-ene-17β-carboxamide] | 10 to 1000 | 10 to 1000 | 10 to 1000 |  |  |  |
| C[C@]12C=CC(=O)N[C@@H]1CC[C@@H]1[C@@H]2CC[C@]2(C)[C@@H](C(=O)Nc3cccc(N[C@@H]4CCC[C@@H](Nc5ccc(F)c6c5C(=O)N(C5CCC(=O)NC5=O)C6=O)C4)c3)CC[C@@H]12 (stereo partly drawn) [C78, N-(3-(N—(N-(7-fluoro-4-(2-(3-(2,6-dioxopiperidine))-isoindole-1,3-dione))-1R,3R-cyclohexanediamine))phenyl)-3-oxo-4-aza-5α-androst-1-ene-17β-carboxamide] | 0.1 to 10 | 0.1 to 10 | 0.1 to 10 |  |  |  |
| C[C@]12C=CC(=O)N[C@@H]1CC[C@@H]1[C@@H]2CC[C@]2(C)[C@@H](C(=O)Nc3cccc(N[C@@H]4CCC[C@@H](Nc5cc(F)cc6c5C(=O)N(C5CCC(=O)NC5=O)C6=O)C4)c3)CC[C@@H]12 (stereo partly drawn) [C79, N-(3-(N—(N-(6-fluoro-4-(2-(3-(2,6-dioxopiperidine))-isoindole-1,3-dione))-1R,3R-cyclohexanediamine))phenyl)-3-oxo-4-aza-5α-androst-1-ene-17β-carboxamide] | 0.1 to 10 | 0.1 to 10 | 0.1 to 10 |  |  |  |
| CN(c1cccc(NC(=O)[C@H]2CC[C@H]3[C@@H]4CC[C@H]5NC(=O)C=C[C@]5(C)[C@H]4CC[C@]23C)c1)[C@@H]1CCC[C@@H](Nc2cccc3c2C(=O)N(C2CCC(=O)NC2=O)C3=O)C1 (stereo partly drawn) [C80, N-(3-(N—(N-methyl-N-(4-(2-(3-(2,6-dioxopiperidine))-isoindole-1,3-dione))-1R,3R-cyclohexanediamine))phenyl)-3-oxo-4-aza-5α-androst-1-ene-17β-carboxamide] | 0.1 to 10 | 0.1 to 10 | 10 to 1000 |  |  |  |
| C[C@]12CCC(=O)N[C@@H]1CC[C@@H]1[C@@H]2CC[C@]2(C)[C@@H](C(=O)Nc3cccc(N[C@@H]4CCC[C@@H](Nc5cccc6c5C(=O)N(C5CCC(=O)NC5=O)C6=O)C4)c3)CC[C@@H]12 (stereo partly drawn) [C81, N-(3-(N—(N-(4-(2-(3-(2,6-dioxopiperidine))-isoindole-1,3-dione))-1R,3R-cyclohexanediamine))phenyl)-3-oxo-4-aza-5α-androstane-17β-carboxamide] |  |  |  | 0.1 to 10 | 0.1 to 10 | 10 to 1000 |
| N-(3-(N—(N-(4-(2-(3-(2,6-dioxopiperidine))-isoindole-1,3-dione))-6S-methyl-1S,3R-cyclohexanediamine))phenyl)-3-oxo-4-aza-5α-androst-1-ene-17β-carboxamide and N-(3-(N—(N-(4-(2-(3-(2,6-dioxopiperidine))-isoindole-1,3-dione))-4R-methyl-1R,3S-cyclohexanediamine))phenyl)-3-oxo-4-aza-5α-androst-1-ene-17β-carboxamide [C70] |  |  |  | 0.1 to 10 | 0.1 to 10 | 10 to 1000 |
| N-(3-(N—(N-(4-(2-(3-(2,6-dioxopiperidine))-isoindole-1,3-dione))-(1R,4S)-bicyclo[2,2,1]heptane-2R,6R-diamine))phenyl)-3-oxo-4-aza-5α-androst-1-ene-17β-carboxamide and N-(3-(N—(N-(4-(2-(3-(2,6-dioxopiperidine))-isoindole-1,3-dione))-(1S,4R)-bicyclo[2,2,1]heptane-2R,6R-diamine))phenyl)-3-oxo-4-aza-5α-androst-1-ene-17β-carboxamide [C71] |  |  |  | 10 to 1000 | 10 to 1000 | > 1000 |
| N-(3-(N—(N-(4-(2-(3-(2,6-dioxopiperidine))-isoindole-1,3-dione))-(1R,4S)-bicyclo[2,2,2]octane-2R,6R-diamine))phenyl)-3-oxo-4-aza-5α-androst-1-ene-17β-carboxamide and N-(3-(N—(N-(4-(2-(3-(2,6-dioxopiperidine))-isoindole-1,3-dione))-(1S,4R)-bicyclo[2,2,2]octane-2R,6R-diamine))phenyl)-3-oxo-4-aza-5α-androst-1-ene-17β-carboxamide [C72] |  |  |  | 10 to 1000 | 10 to 1000 | > 1000 |
| N-(3-(N—(N-(4-(2-(3-(2,6-dioxopiperidine))-isoindole-1,3-dione))-(1R,5S)-bicyclo[3,2,2]nonane-7R,8R-diamine))phenyl)-3-oxo-4-aza-5α-androst-1-ene-17β-carboxamide and N-(3-(N—(N-(4-(2-(3-(2,6-dioxopiperidine))-isoindole-1,3-dione))-(1S,5R)-bicyclo[3,2,2]nonane-7R,8R-diamine))phenyl)-3-oxo-4-aza-5α-androst-1-ene-17β-carboxamide [C73] |  |  |  | 10 to 1000 | 10 to 1000 | > 1000 |
